Experimental data as given in patent US20250268980A1, “AN ANTICANCER THERAPY TARGETING RAS AND OTHER ONCOGENIC SIGNALS BY INHIBITION OF DYNAMIC BLEBBING AND/OR SEPTINS” (THE BOARD OF REGENTS OF THE UNIVERSITY OF TEXAS SYSTEM, priority 2022, published 2025).

System: NRAS
Experiment: NRAS-GFP enrichment at the cortex of MV3 cells
Type: cell-based, human
Details: voxels within 0.96 μm of surface
Method: 3D Cell Image Analysis. Cell morphology and septin localization were analyzed principally via u-shape3D similar to the protocol described in Driscoll et al. Nature Methods. 16, 1037-1044 (2019), the disclosure of which is incorporated herein in its entirety. Briefly, 3D images were first deconvolved using either a Richardson-Lucy or Wiener algorithm with an experimentally measured point spread function. Cells were next segmented from the image background using u-shape3D's ‘twoLevel’ mode, which combines a straightforward Otsu threshold of the image to detect the outer cell surface with a blurred version of the image to segment the inside of the cell. The volume segmented from the blurred image was morphologically eroded to ensure the fidelity of the overall segmentation. Cell surfaces were then represented as triangle meshes, and the mean surface curvature at every triangle was calculated according to methods described in Driscoll et al. Nature Methods. 16, 1037-1044 (2019) and Elliott et al., Nat. […] Septin and NRAS localization was measured from fluorescence images by extending a sphere of either 1 μm (for septins) or 2 μm (for NRAS) about each mesh triangle and mapping to the triangle the average intensity both within that sphere and the cell. Image intensity was not depth normalized prior to analysis, but was instead measured from the raw, undeconvolved image. […]

## O=C(Nc1ccccc1)Nc1ccnc(Cl)c1 [FCF, forchlorfenuron]
  enrichment of NRAS near the cell surface: significantly reduced enrichment of NRAS near the cell surface
